Patent US7910065B2, “Reaction sensing in living cells” (The Charles Stark Draper Laboratory, Inc., priority 2005, dated 2011)

Experiments:
[1] = system: wild type (WT) yeast containing the ERG2; experiment: Optical sodium and potassium ion sensor monitoring of yeast cells stimulated with a HERG inhibitor (HERG compatibility screen), wild type; conditions: FIG. 6
Description: (§1) The sensors of the present invention are suited to many different types of assays, or for the detection of compounds. In one exemplary application, a model cell system is used to screen for HERG compatibility. HERG (human ether-a-go-go) channels are implicated in the abnormal heart rhythms associated with Long QT Syndrome. It is believed that many compounds can block these channels and cause prolongation of the beat cycle of the heart. This abnormal rhythm can cause arrhythmia and can even lead to death. Accordingly, it is important that all drugs, regardless of therapeutic target, be screened for HERG compatibility.
(§2) Much is known genetically about yeast, and gene knock-outs are commercially available, allowing for the screening of two types of yeast: the wild type (WT) containing the ERG2, and one mutated to knock-out the ERG2 gene.
(§3) This example utilizes two cell types and two types of sensors, providing four different data signals, and the approach can be extended to an arbitrary number of sensors and cell types. Similarly, tissue can be used instead of culture.

[2] = system: yeast mutated to knock-out the ERG2 gene; experiment: Optical sodium and potassium ion sensor monitoring of yeast cells stimulated with a HERG inhibitor (HERG compatibility screen), ERG2 knock-out; conditions: FIG. 6
Description: as §1, §2, §3

**Q.** What does the source list for `O=C(CCCN1CCC(O)(c2ccc(Cl)cc2)CC1)c1ccc(F)cc1` [Haloperidol]?
**A.** change in potassium upon stimulation of the cells ([1]; potassium sensor): a change is observed; change in sodium upon stimulation of the cells ([1]; sodium sensor): a change is observed; response in potassium upon stimulation of the cells ([2]; potassium sensor): no response; response in sodium upon stimulation of the cells ([2]; sodium sensor): no response
